Like-named read-outs stand apart in the source and are kept apart here. *: point of attachment. Cbz = O=C(OCc1ccccc1)*; CH2F = FC*

Data set [1] concerns 4T1 cells. The class given is cell-based, mouse. As to the method:
(§1) All cells (8 × 10^3 per well) were plated in 96-well plates at 37 °C and 5% CO2 overnight. Then cells were treated with gradient concentrations of NSBSO, NCSBSO, NS or BSO for another 12 h or 24 h. Afterward, cck-8 reagent was added to each well. And the 96-well plates were incubated for another 3 h at 37 °C and followed by determining the absorbance at 450 nm utilizing a microplate reader (Thermo, USA). IC50 values of NSBSO against different cells were conducted using GraphPad Prism 8 software. Additionally, in order to determine the cell cytotoxicity of NSBSO after treatment with various inhibitors or GSH, the cells were pretreated with inhibitors for 24 h or GSH (0, 1, 2.5 and 5 mM) for 12 h before NSBSO treatment. The human breast adenocarcinoma cell line (MCF-7 cells), mouse melanoma cell line (B16 cells), human lung cancer line (A549 cells), mouse breast cancer cell line (4T1 cells), murine colon carcinoma cell line (CT26 cells) and mouse embryonic fibroblast cell line (3T3 cells) were used for research. MCF-7 and 3T3 cells were cultured in DMEM culture medium supplemented with 10% FBS and 1% penicillin/streptomycin (pen/strep) at 37 °C in 5% CO2. B16, A549, 4T1 and CT26 cells were cultured in RPMI Medium 1640 basic supplemented with 10% FBS and 1% penicillin/streptomycin (pen/strep) at 37 °C in 5% CO2.

In data set [2] the test system is B16 cells. The class given is cell-based, mouse. As for the experimental part: as §1
A further data set relates to GPX4. The data set is described as follows: Intracellular GPX4 activity assay in 4T1 cell lysates. The class given is cell-based, mouse. As to conditions: 10 μM, 6 h, t-BuOOH as substrate. As to the method: 4T1 cells were all seeded in the density of 1 × 10^6 cells per dish in 6-cm dishes for 24 h. Upon completion of incubation with different treatments for 6 h, the cell lysates were collected and quantified by a detergent compatible bradford protein assay kit. The intracellular GPX activity was measured through a cellular glutathione peroxidase assay kit on the basis of the manufacturer’s instructions.

In data set [3] the test system is 4T1 cells. The data set is described as follows: Rescue of NSBSO-induced cell death by inhibitors, 4T1 cells. The class given is cell-based, mouse. As for the experimental part:
(§2) All cells (8 × 10^3 per well) were plated in 96-well plates at 37 °C and 5% CO2 overnight. Then cells were treated with gradient concentrations of NSBSO, NCSBSO, NS or BSO for another 12 h or 24 h. Afterward, cck-8 reagent was added to each well. And the 96-well plates were incubated for another 3 h at 37 °C and followed by determining the absorbance at 450 nm utilizing a microplate reader (Thermo, USA). IC50 values of NSBSO against different cells were conducted using GraphPad Prism 8 software. Additionally, in order to determine the cell cytotoxicity of NSBSO after treatment with various inhibitors or GSH, the cells were pretreated with inhibitors for 24 h or GSH (0, 1, 2.5 and 5 mM) for 12 h before NSBSO treatment.

Data set [4] concerns B16 cells. The data set is described as follows: Rescue of NSBSO-induced cell death by inhibitors, B16 cells. As to conditions: inhibitor pretreated 24 h, NSBSO 12 h, cck-8. The format is cell-based, mouse. As to the method: as §2
The next data set deals with A549 cells. The format is cell-based, human. As to the method:
as §1

In a further data set the test system is MCF-7 cells. The class given is cell-based, human. As for the experimental part: as §1
The test system of the next data set is 3T3 cells. The class given is cell-based, mouse. As for the experimental part:
as §1

Another data set relates to CT26 cells. The format is cell-based, murine. As for the experimental part:
as §1

The nature of another data set: in vitro. As to conditions: serum.

As to `CCCCS(=N)(=O)CC[C@H](N)C(=O)O` (stereo partly drawn) [BSO, L-buthionine-sulfoximine, reference compound], the cytotoxicity entry with 4T1 cells [1] and in the data set on B16 cells [2] was “did not show obvious cytotoxicity” throughout. Moreover, in the data set on GPX4, the “activity of GPX4 (rate of NADPH oxidation, 340 nm)” value was “suppressed to varying degrees”.
On to `CCOC(=O)c1ccc(NC2CCCCC2)c(N)c1` [Fer-1, ferrostatin-1], for which the “rescue of NSBSO-induced cell death” value is 42.13% in the data set on 4T1 cells [3] (Fer-1 0.5 μM pretreated 24 h before NSBSO treatment, cck-8, n = 4) and “did not markedly alleviate” with B16 cells [4].
In the case of `CCCCS(=N)(=O)CC[C@H](NC(=O)[C@H](CC(=O)O)NC(=O)[C@@H](NC(=O)[C@H](CCC(=O)O)NC(=O)[C@H](CC(=O)O)NC(=O)CCC(=O)NCCCCCCNC(=O)[C@H](Cc1ccc(O)cc1)NC(=O)[C@@H](Cc1ccccc1)NC(=O)[C@@H](Cc1ccccc1)NC(=O)Cc1ccc2ccccc2c1)C(C)C)C(=O)O` (stereo partly drawn) [NCBSO, Nap-^DF^DFY-HDA-DEVD-BSO], the cytotoxicity result in the data set on 4T1 cells [1] and in the data set on B16 cells [2] was “did not show obvious cytotoxicity” each time.
With `CC(C)[C@H](NC(=O)[C@H](CCC(=O)O)NC(=O)[C@H](CC(=O)O)NC(=O)CCC(=O)NCCSSCCNC(=O)[C@H](Cc1ccc(O)cc1)NC(=O)[C@@H](Cc1ccccc1)NC(=O)[C@@H](Cc1ccccc1)NC(=O)Cc1ccc2ccccc2c1)C(=O)N[C@@H](CC(=O)O)C(=O)O` [NS, Nap-^DF^DFY-CS-DEVD], the cytotoxicity result with 4T1 cells [1] and in the data set with B16 cells [2] was “concentration-dependent cytotoxicity” each time.
For the compound `CCCCS(=N)(=O)CC[C@H](NC(=O)[C@H](CC(=O)O)NC(=O)[C@@H](NC(=O)[C@H](CCC(=O)O)NC(=O)[C@H](CC(=O)O)NC(=O)CCC(=O)NCCSSCCNC(=O)[C@H](Cc1ccc(O)cc1)NC(=O)[C@@H](Cc1ccccc1)NC(=O)[C@@H](Cc1ccccc1)NC(=O)Cc1ccc2ccccc2c1)C(C)C)C(=O)O` (stereo partly drawn) [NSBSO, Nap-^DF^DFY-CS-DEVD-BSO], the IC50 in the data set on A549 cells (12 h) was 7.56 µM; in the data set with A549 cells (24 h), 1.22 µM; in the data set with MCF-7 cells (12 h), 4.43 µM; in the data set with MCF-7 cells (24 h) it was 1.07 µM; in the data set with 3T3 cells (12 h) it was more than 100 µM; in the data set on 3T3 cells (24 h), more than 100 µM. Further, the IC50 in the data set with 4T1 cells [1] (12 h) was 10.9 µM; in the data set with 4T1 cells [1] (24 h) it was 4.74 µM; with B16 cells [2] (12 h), 1.98 µM; in the data set on B16 cells [2] (24 h), 0.844 µM; with CT26 cells (12 h), more than 100 µM; with CT26 cells (24 h), more than 100 µM. The cytotoxicity result in the data set on 4T1 cells [1] and in the data set on B16 cells [2] was “concentration-dependent cytotoxicity” in each case. For the same compound, in the data set “in vitro”, the share remaining at 2 h, 400 μM is more than 80%. In addition, the share remaining at 24 h, 400 μM in “in vitro” is more than 50%.
As for Ac-DEVD-CHO, the “rescue of NSBSO-induced cell death” value in the data set with B16 cells [4] is “better rescued”.
Take Cbz-Val-Ala-Asp-CH2F: the “rescue of NSBSO-induced cell death” value in the data set on 4T1 cells [3] (NSBSO 5 μM, 24 h, cck-8) is given as “scarcely rescued”.

In general, IC50 refers to the midpoint of a concentration-inhibition curve. The low end stands for greater potency, the high end for weaker potency. As usually defined, the share remaining is what is left of the initial amount, in per cent. The low end stands for more turnover, the high end for less turnover.

Source of the values: PMC9429723, “Hypertoxic self-assembled peptide with dual functions of glutathione depletion and biosynthesis inhibition for selective tumor ferroptosis and pyroptosis” (Journal of Nanobiotechnology, 2022).
